Test results published in patent US20070073039A1, “Peptides that inhibit viral infections” (priority 2005, published 2007).

Experiments:
HCV [1] = assay: HCV focus reduction assay; assay type: cell-based, Hepatitis C virus (JFH-1); conditions: for Inhibition of HCV infection: cell culture model of HCV infection; for Fold Inhibition: inhibition of HCV infection; for Fold Inhibition / % of Mock: peptide approximately 20 μM, Huh-7.5.1 cells, 3 days; for % of Mock: number of HCV foci as % of mock (0.5% DMSO); for Fold inhibition of HCV infection: peptide library screen, approximately 20 μM; for Focus Reduction (72 h): working concentration 18.4-27.5 μM per peptide, Mock 51; for 1/3 diluted / 1/9 diluted / No dilution: HCV foci; for 1/3 diluted: 1/3 of final concentration (6 μM); for 1/9 diluted: 1/9 of final concentration (2 μM); for No dilution: final concentration 17-20 μM, MOCK 53 ± 4
Description: To identify peptides that display antiviral activity against HCV infection, the peptide library was screened by an HCV focus reduction assay. The peptides were constituted in 100% DMSO at a final concentration 10 mg/mL, and stored in −20° C. The peptide stock solution was diluted 1:200 to a final concentration approximately 20 μM in complete DMEM growth medium containing 50 focus forming units (ffu) of HCV. The virus-peptide mixture was transferred to Huh-7.5.1 cells at a density of 8000 cells per well in a 96-well plate. After adsorption for 4 hours at 37° C., the inoculum was removed. The cells were washed 2 times, overlaid with 120 μL fresh growth medium and incubated at 37° C. After 3 days of culture, the cells were fixed with paraformaldehyde and immunostained with antibody against HCV nonstructural protein NS5A. The numbers of HCV foci were counted under fluorescent microscopy and the result is expressed as percentage (%) of mock with no peptide treatment but containing solvent 0.5% DMSO.
To determine whether the antiviral activity of peptide 1 is dependent on its primary amino acid sequence, four derivative peptides from peptide 1 were synthesized to a purity >95%. The four derivatives having the same composition of amino acids included (1) the reversed the sequence of peptide 1 (also called retro-peptide); (2) scrambled hydrophobic amino acids; (3) scrambled hydrophilic amino acids; and (4) a derivative in which the aspartic acid residues (D) were replaced with proline residues (P). The antiviral activity of the peptides was examined by HCV focus reduction assay at three peptide concentrations: 18 μM, 6 μM and 2 μM, as described above.

HCV [2] = assay: Intracellular HCV RNA by real time RT-QPCR after infection of Huh-7.5.1 cells with and without peptide; assay type: cell-based, Hepatitis C virus (JFH-1); conditions: for HCV RNA fold inhibition 24 h 25 μM / HCV RNA fold inhibition 72 h 25 μM: Huh-7.5.1 cells, MOI 0.1, normalized to GAPDH; for Fold Inhibition on HCV RNA (24 h) / Fold Inhibition on HCV RNA (72 h): working concentration 18.4-27.5 μM per peptide
Description: To accurately quantify the inhibitory effect of the selected peptides on HCV infection, intracellular HCV RNA was measured after infection by real time RT-QPCR with and without peptide treatment. The peptide stock solution was diluted 1:100 and mixed with equal volume of viral supernatant (propagated from day 18 virus preparation post transfection) to a final concentration approximately 20 μM. The virus with peptide or 0.5% DMSO solvent control was then used to infect Huh-7.5.1 cells at a multiplicity of infection (MOI) of 0.1. After an adsorption for 4 hours at 37° C., the inoculum was removed. The cells were washed 2 times, overlaid with 120 μL fresh growth medium and incubated at 37° C. At the indicated time points, total cellular RNA was isolated by the guanidine thiocyanate method. The HCV RNA transcript level was measured by real time RT-QPCR with the primers 5′—
normalized to cellular GAPDH levels.
To define the antiviral action of peptide #1 (SEQ ID NO:43), the antiviral activity of a series of N-terminal and C-terminal truncations of peptide 1 was analyzed using the focus reduction assay and by measuring the reduction in intracellular HCV RNA as described.

Sequence | Fold Inhibition (HCV [1]) [fold] | % of Mock (HCV [1]) [%] | also measured
ALYVGDLCGSVFLVGQLF [Peptide 7] | 100.0 | 1.0 | Inhibition of HCV infection (HCV [1]): strongly inhibit HCV infection; Fold inhibition of HCV infection (HCV [1]): more than ten-fold; HCV RNA fold inhibition 24 h 25 μM (HCV [2]): 20 fold; HCV RNA fold inhibition 72 h 25 μM (HCV [2]): 11 fold
QPGYPWPLYGNEGCGWAG [Peptide 6937] | 2.0 | 50.0 | 
GAVYAFYGMWPLLLLLLA [Peptide 7038] | 5.3 | 19.0 | Fold inhibition of HCV infection (HCV [1]): five-fold to ten-fold
VSTATQTFLATCIN [Peptide 7725] | 2.5 | 40.5 | 
YVSGMTTDNLKCPCQIPS [Peptide 7226] | 2.6 | 38.1 | 
MWNFISGIQYLAGLSTLP [Peptide 7178] | 2.3 | 42.9 | 
WICEVLSDFK [^N-10mer] |  |  | Focus Reduction (72 h) (HCV [1]): 45; Fold Inhibition on HCV RNA (24 h) (HCV [2]): 1.1 fold; Fold Inhibition on HCV RNA (72 h) (HCV [2]): 1.0 fold
DDLVVICESAGVQEDAAS [Peptide 7317] | 3.8 | 26.2 | 
TDFAQGWGPISYANGSGL [Peptide 6992] | 3.2 | 31.0 | 
CEVLSDFK [^N-8mer] |  |  | Focus Reduction (72 h) (HCV [1]): 53; Fold Inhibition on HCV RNA (24 h) (HCV [2]): 1.1 fold; Fold Inhibition on HCV RNA (72 h) (HCV [2]): 0.7 fold
WMMLLISQAEAALENLVI [Peptide 4] | 21.0 | 4.8 | Inhibition of HCV infection (HCV [1]): strongly inhibit HCV infection; Fold inhibition of HCV infection (HCV [1]): more than ten-fold; HCV RNA fold inhibition 24 h 25 μM (HCV [2]): 27 fold; HCV RNA fold inhibition 72 h 25 μM (HCV [2]): 40 fold
WMNSTGFTKVCGAPPCVI [Peptide 7005] | 6.0 | 16.7 | Fold inhibition of HCV infection (HCV [1]): five-fold to ten-fold
LPTTQLRRHIDLLVGSAT [Peptide 6962] | 2.6 | 38.1 | 
KWLCRIWSWISDVLDDFE (OTHER INFORMATION: A synthetic peptide) |  |  | 1/3 diluted (HCV [1]): 8 ± 6; 1/9 diluted (HCV [1]): 15 ± 6; No dilution (HCV [1]): 0 ± 0
RAAGLQDCTMLVCGDDLV [Peptide 7315] | 2.0 | 50.0 | 
SIWRDWVDLICEFLSDWK (OTHER INFORMATION: A synthetic peptide) |  |  | 1/3 diluted (HCV [1]): 31 ± 2; 1/9 diluted (HCV [1]): 16 ± 4; No dilution (HCV [1]): 0 ± 0
GWAGWLLSPRGSRPSWGP [Peptide 6939] | 2.2 | 45.2 | 
LELITSCSSNVSVAHDGA [Peptide 7323] | 2.3 | 42.9 | 
LASCRRLTDFAQGWGPIS [Peptide 6991] | 2.8 | 35.7 | 
TLVFDITKLLLAIFGPLW [Peptide 6] | 100.0 | 1.0 | Inhibition of HCV infection (HCV [1]): strongly inhibit HCV infection; Fold inhibition of HCV infection (HCV [1]): more than ten-fold; HCV RNA fold inhibition 24 h 25 μM (HCV [2]): 24 fold; HCV RNA fold inhibition 72 h 25 μM (HCV [2]): 16 fold
SWLRPIWPWICEVLSDFK (OTHER INFORMATION: A synthetic peptide) |  |  | 1/3 diluted (HCV [1]): 21 ± 8; 1/9 diluted (HCV [1]): 41 ± 2; No dilution (HCV [1]): 9 ± 3
GMWPLLLLLLALPQRAYA [Peptide 7039] | 3.2 | 31.0 | 
KWEYVVLLFLLLADARVC [Peptide 7028] | 2.1 | 47.6 | 
LAALAAYCLSTGCVV [Peptide 7730] | 4.7 | 21.4 | 
RHIDLLVGSATLCSALYV [Peptide 6963] | 3.2 | 31.0 | 
GPISYANGSGLDERPYCW [Peptide 6993] | 4.2 | 23.8 | 
YLYGVGSSIASWAIKWEY [Peptide 11] | 42.0 | 2.4 | Inhibition of HCV infection (HCV [1]): strongly inhibit HCV infection; Fold inhibition of HCV infection (HCV [1]): more than ten-fold; HCV RNA fold inhibition 24 h 25 μM (HCV [2]): 9 fold; HCV RNA fold inhibition 72 h 25 μM (HCV [2]): 7 fold
MYVGGVEHRLEAACNWTR [Peptide 7016] | 6.0 | 16.7 | Fold inhibition of HCV infection (HCV [1]): five-fold to ten-fold

Sequence | Fold Inhibition (HCV [1]) [fold] | % of Mock (HCV [1]) [%] | also measured
TVTESDIRTEEAIYQCCD [Peptide 7304] | 2.8 | 35.7 | 
SSGADTEDVVCCSMS [Peptide 7740] | 2.3 | 42.9 | 
DTEDVVCCSMSYSW [Peptide 7741] | 42.0 | 2.4 | Inhibition of HCV infection (HCV [1]): strongly inhibit HCV infection; Fold inhibition of HCV infection (HCV [1]): more than ten-fold
KFDSLVECIWDWIDRLWS (OTHER INFORMATION: A synthetic peptide) |  |  | 1/3 diluted (HCV [1]): 50 ± 7; 1/9 diluted (HCV [1]): 31 ± 3; No dilution (HCV [1]): 1 ± 1
APTLWARMILMTHFFSVL [Peptide 7331] | 2.2 | 45.2 | 
HTPVNSWLGNIIMFAPTL [Peptide 7329] | 2.1 | 47.6 | 
SIASWAIKWEYVVLLFLL [Peptide 7027] | 2.5 | 40.5 | 
NCNESLNTGWLAGLFYQH [Peptide 6987] | 2.8 | 35.7 | 
PCVIGGVGNNTLLCPTDC [Peptide 7007] | 3.0 | 33.3 | 
GSGLDERPYCWHYPPRPC [Peptide 6994] | 3.0 | 33.3 | 
GNTLTCYIKARAACRAAG [Peptide 7313] | 2.2 | 45.2 | 
HINSTALNCNESLNTGWL [Peptide 6986] | 2.5 | 40.5 | 
GVPPLRAWRHRARSVRAR [Peptide 7342] | 2.0 | 50.0 | 
EVFWAKHMWNFISGIQYL [Peptide 7177] | 4.2 | 23.8 | 
GWFTAGYSGGDIYHSVSH [Peptide 7350] | 2.3 | 42.9 | 
DVVCCSMSYSWTGAL [Peptide 7742] | 4.2 | 23.8 | 
WRHRARSVRARLLSRGGR [Peptide 7343] | 2.1 | 47.6 | 
AYMNTPGLPVCQDHLEFW [Peptide 7146] | 2.5 | 40.5 | 
PAILSPGALVVGVVCAAI [Peptide 7195] | 2.3 | 42.9 | 
HPITKYIMTCMSADLEVV [Peptide 7160] | 2.6 | 38.1 | 
DAILHTPGCVPCVREGNA [Peptide 6957] | 4.7 | 21.4 | 
WVLVGGVLAALAAYCLST [Peptide 7163] | 3.8 | 26.2 | 
DSSVLCECYDAGCAWYEL [Peptide 7142] | 2.5 | 40.5 | 
LEFWEGVFTGLTHIDAHF [Peptide 7148] | 3.0 | 33.3 | 
TSTWVLVGGVLAAL (VTSTWVLVGGVLAAL) [Peptide 7729] | 8.4 | 11.9 | Fold inhibition of HCV infection (HCV [1]): five-fold to ten-fold
QIVGGVYLLPRRGPRLGV [Peptide 6930] | 2.2 | 45.2 | 
DQLEQALNCEIYGACYSI [Peptide 7334] | 3.5 | 28.6 | 
